Counter-ions that a name gives are not always drawn.
How the values were obtained:
in vivo = conditions: Brown Norway, iv
Protocol: This intravenous dosing solution is administered to a Brown Norway rat. After a given interval from the administration, for example, 24, 72 and 168 hours after the administration, blood is collected. Then, the rat is euthanized while the eyeballs are excised. A posterior eye tissue such as the choroid and/or the sclera, the retina, or the optic nerve is harvested therefrom. A given amount of an aqueous solution containing an organic solvent (e.g., a 50 vol % methanol solution) is added to the harvested posterior eye tissue, which is then homogenized, for example, to prepare an assay sample. The drug concentration in this assay sample can be measured using a liquid chromatograph-tandem mass spectrometer (LC/MS/MS) to measure the compound concentration in the posterior eye tissue in the case of systemic administration. The elimination half-life of the compound in the posterior eye tissue can be further calculated from time-dependent change in compound concentration in the posterior eye tissue.
Each compound was dissolved in DMA. […] Each intravenous dosing solution was administered (0.5 mL/kg) to the tail vein of each Brown Norway rat. Twenty-four, 72 and 168 hours after the administration, blood was collected. Then, the animal was euthanized, and the eyeballs were excised. The eyeballs were washed, and a choroid/sclera sample was then harvested.
A given amount of a 50 vol % methanol solution was added to the harvested choroid/sclera sample, which was then homogenized. Acetonitrile was further added thereto, and the mixture was stirred. The sample was centrifuged, and the supernatant was harvested. A 0.1 vol % formic acid solution was added thereto to prepare an assay sample. The drug concentration in the assay sample was measured using a liquid chromatograph-tandem mass spectrometer (LC/MS/MS).

[1] = Test Example 10: pharmacokinetics of compounds IV to VIII, single ocular instillation to rat, concentration in choroid/sclera; type: in vivo, Brown-Norway rat; conditions: rats, 1.5 hours
Protocol: 1.5 hours after the ocular instillation, blood was collected. Then, the animal was euthanized, and both the eyeballs were excised.
The sample was centrifuged, and the supernatant was harvested.

[2] = Test Example 6: pharmacokinetics, single ocular instillation to cynomolgus monkey, concentration in choroid; type: in vivo; conditions: cynomolgus monkeys
Protocol: The nanoparticle composition of the present invention prepared according to Example 1 and the microparticle composition prepared according to Comparative Example 1 were evaluated for their pharmacokinetics when administered at a single dose by ocular instillation to male cynomolgus monkeys. The nanoparticle composition of the present invention prepared according to Example 1 was administered by ocular instillation (50 μL/eye) to the right eye of each animal, while the microparticle composition prepared according to Comparative Example 1 was administered by ocular instillation (50 μL/eye) to the left eye thereof. Four hours or 48 hours (n=2 for each point in time) after the ocular instillation, blood was collected. […] The eyeballs were washed, and a choroid tissue was then harvested.
(§1) The sample was centrifuged, and the supernatant was harvested. A 10 mmol/L ammonium acetate solution was added thereto to prepare an assay sample.

[3] = Test Example 3: pharmacokinetics, single ocular instillation to rat, concentration in choroid/sclera; type: in vivo, Brown Norway rat; conditions: rats, 4 hours
Protocol: The nanoparticle compositions of the present invention prepared in accordance with Examples 1 and 26 and the nanoparticle compositions of the present invention obtained in Examples 50, 52, 53, 54, 57 and 96 were evaluated for their pharmacokinetics when administered at a single dose by ocular instillation to rats. Each nanoparticle composition was administered at a single dose by ocular instillation to the right eyes of male Brown Norway rats (5 μL/eye, n=2 for each group). Four hours after the ocular instillation, each rat was euthanized, and the right eyeball was excised. The eyeball was washed, and a choroid/sclera sample was then harvested.
as §1

[4] = Test Example 1: pharmacokinetics, single ocular instillation to rat, concentration in choroid/sclera; type: in vivo, Brown Norway rat; conditions: nanoparticle composition, mean particle size 1000 nm or smaller
Protocol: The nanoparticle compositions of the present invention obtained in Examples 19 and 24 and the microparticle compositions obtained in Comparative Examples 3 and 4 were evaluated for their pharmacokinetics when administered at a single dose by ocular instillation (4 to 12 μL/eye, n=2 for each group) to rats. Each nanoparticle composition was administered at a single dose by ocular instillation to the right eyes of male Brown Norway rats. Four to 7 hours after the ocular instillation, each rat was euthanized, and the right eyeball was excised. The eyeball was washed, and an eyeball tissue sample (choroid/sclera) was then harvested.
as §1

[5] = Test Example 5: pharmacokinetics, single ocular instillation to rabbit, compound III in choroid/retina; type: in vivo, Kbl:Dutch rabbit; conditions: rabbits, all particle sizes evaluated
Protocol: The nanoparticle compositions obtained in Reference Examples 11 to 13 and the microparticle composition prepared according to Comparative Example 1 were evaluated for their pharmacokinetics when administered at a single dose by ocular instillation (20 μL/eye) to Kbl:Dutch rabbits. Each of the nanoparticle compositions obtained in Reference Examples 11 to 13 and the microparticle composition prepared according to Comparative Example 1 was administered at a single dose by ocular instillation to the left eyes of the animals (n=3 for each condition). 1.5 hours after the ocular instillation, each animal was euthanized, and the eyeballs were excised. The eyeballs were washed, and a choroid/retina sample was then harvested.
as §1

[6] = rat, 0.2 mg/kg, Half-life in choroid and sclera

CNC(=O)c1ccccc1Sc1ccc2c(/C=C/c3ccccn3)n[nH]c2c1 [axitinib]
half-life (in vivo; [6]): 57.4 h

COC(=O)c1ccc2c(c1)NC(=O)/C2=C(\Nc1ccc(N(C)C(=O)CN2CCN(C)CC2)cc1)c1ccccc1 [Compound VI, methyl (3Z)-3-[({4-[N-methyl-2-(4-methylpiperazin-1-yl)acetamido]phenyl}amino)(phenyl)methylidene]-2-oxo-2.3-dihydro-1H-indole-6-carboxylate]
transfer to the choroid and/or the sclera, nanoparticle vs microparticle composition [1]: did not differ in transfer to the choroid and/or the sclera
half-life (in vivo; [6]): 194 h

COc1cc2nccc(Oc3ccc(NC(=O)Nc4cc(C)on4)c(Cl)c3)c2cc1OC [Compound II, N-[2-chloro-4-(6,7-dimethoxyquinolin-4-yloxy)phenyl]-N′-(5-methylisoxazol-3-yl)urea hydrochloride hydrate]
concentration in the choroid, compound II vs regorafenib [2]: much higher than that of regorafenib
transfer to the choroid and/or the sclera [3]: high transfer to the choroid and/or the sclera
transfer to the choroid and/or the sclera [4]: drastically enhanced transfer to the choroid and/or the sclera

COCCNCc1ccc(-c2cc3nccc(Oc4ccc(NC(=S)NC(=O)Cc5ccc(F)cc5)cc4F)c3s2)nc1 [glesatinib]
half-life (in vivo; [6]): 132 h

COc1cc2c(Oc3ccc4[nH]c(C)cc4c3F)ccnc2cc1OCC1(N)CC1 [Compound IV, 1-[[4-[(4-fluoro-2-methyl-1H-indol-5-yl)oxy]-6-methoxyquinolin-7-yl]oxymethyl]cyclopropan-1-amine]
transfer to the choroid and/or the sclera, nanoparticle vs microparticle composition [1]: moderately improved transfer
half-life (in vivo; [6]): 141 h

COc1cc2ncnc(Nc3cccc(Cl)c3)c2cc1OC [AG-1478, N-(3-chlorophenyl)-N-(6,7-dimethoxyquinazolin-4-yl)amine]
half-life (in vivo; rat, 0.05 mg/kg, Half-life in choroid and sclera): 42.8 h

CNC(=O)c1cc(Oc2ccc(NC(=O)Nc3ccc(Cl)c(C(F)(F)F)c3)c(F)c2)ccn1 [Compound III, 4-{4-[3-(4-chloro-3-trifluoromethylphenyl)-ureido]-3-fluorophenoxy}pyridine-2-carboxylic acid methylamide]
transfer to the choroid [5]: very low

COc1cc2ncnc(Nc3ccc(F)c(Cl)c3)c2cc1NC(=O)/C=C/CN1CCCCC1 [Compound VII, (E)-N-[4-(3-chloro-4-fluoroanilino)-7-methoxyquinazolin-6-yl]-4-piperidin-1-ylbut-2-enamide]
transfer to the choroid and/or the sclera, nanoparticle vs microparticle composition [1]: drastically improved transfer
Half-life in choroid and sclera (in vivo; rat, 0.2 mg/kg): 486 h
half-life (in vivo; [6]): 918 h

C=CC(=O)Nc1ccc2ncnc(Nc3ccc(OCc4cccc(F)c4)c(Cl)c3)c2c1 [Compound VIII, N-[4-[[3-chloro-4-[(3-fluorobenzyl)oxy]phenyl]amino]quinazolin-6-yl]acrylamide]
transfer to the choroid and/or the sclera, nanoparticle vs microparticle composition [1]: drastically improved transfer
Half-life in choroid and sclera (in vivo; rat, 0.2 mg/kg): 40.1 h
half-life (in vivo; [6]): 52.9 h

CS(=O)(=O)CCNCc1ccc(-c2ccc3ncnc(Nc4ccc(OCc5cccc(F)c5)c(Cl)c4)c3c2)o1 [lapatinib]
half-life (in vivo; [6]): 246 h

C#Cc1cccc(Nc2ncnc3cc4c(cc23)OCCOCCOCCO4)c1 [icotinib]
half-life (in vivo; [6]): 64.8 h

C[C@@H]1COC(Nc2ccc3ncnc(Nc4ccc(OCc5nccs5)c(Cl)c4)c3c2)=N1 [varlitinib]
half-life (in vivo; [6]): 46.1 h

COc1cc2c(Nc3ccc(Cl)c(Cl)c3F)ncnc2cc1OC[C@@H]1C[C@@H]2CN(C)C[C@@H]2C1 [tesevatinib]
half-life (in vivo; [6]): 305 h

COc1cc(N2CCC(N3CCN(C)CC3)CC2)ccc1Nc1ncc(Cl)c(Nc2ccccc2P(C)(C)=O)n1 [brigatinib]
half-life (in vivo; rat, 0.1 mg/kg): 137 h

Cc1cc(C(=O)Nc2nc3cccc(Cl)c3n2[C@@H]2CCCCN(C(=O)/C=C/CN(C)C)C2)ccn1 [nazartinib]
half-life (in vivo; [6]): 65.4 h

COc1cc2ncnc(Nc3cccc(Cl)c3F)c2cc1OC(=O)N1CCN(C)C[C@H]1C [AZD-3759, 4-[(3-chloro-2-fluorophenyl)amino]-7-methoxyquinazolin-6-yl (2R)-2,4-dimethylpiperazine-1-carboxylate]
half-life (in vivo; [6]): 120 h

COc1cc2nccc(Oc3ccc(NC(=O)C4(C(=O)Nc5ccc(F)cc5)CC4)cc3)c2cc1OC [cabozantinib]
half-life (in vivo; in vivo, 0.2 mg/kg, Half-life in choroid and sclera, VEGF receptor inhibitors, intravenous single dose 0.2 mg/kg): 65.8 h

CNC(=O)c1c(C)oc2cc(Oc3ncnc4cc(OC)c(OC)cc34)ccc12 [fruquintinib]
half-life (in vivo; [6]): 32.5 h

C=CC(=O)N1CCC(Oc2cc3c(Nc4ccc(Cl)c(Cl)c4F)ncnc3cc2OC)CC1 [poziotinib]
half-life (in vivo; [6]): 31.9 h

COc1cc2nccc(Oc3ccc(NC(=O)NC4CC4)c(Cl)c3)c2cc1C(N)=O [Compound V, 4-[3-chloro-4-(cyclopropylcarbamoylamino)phenoxy]-7-methoxyquinoline-6-carboxamide]
half-life (in vivo; [6]): 42.3 h

C=CC(=O)Nc1cccc(Oc2nc(Nc3ccc(N4CCN(C)CC4)c(F)c3)nc3[nH]ccc23)c1 [avitinib]
half-life (in vivo; in vivo, 0.2 mg/kg, Half-life in choroid and sclera, EGFR inhibitors, intravenous single dose 0.2 mg/kg): 85.5 h
